The values below come from PMC6643344, “Studying the Possibilities of Using 2-Halogen-Substituted Acetamides As Acyl Donors in Penicillin Acylase-Catalyzed Reactions” (Acta Naturae, 2019).

The target of this test is T1, penicillin acylase from Escherichia coli (Escherichia coli, UniProt P06875).
T1 construct: gene pac; free enzyme in solution; mature alpha/beta heterodimer cut from one precursor (known biology)
T1 sequence (P06875 27-235, looked up): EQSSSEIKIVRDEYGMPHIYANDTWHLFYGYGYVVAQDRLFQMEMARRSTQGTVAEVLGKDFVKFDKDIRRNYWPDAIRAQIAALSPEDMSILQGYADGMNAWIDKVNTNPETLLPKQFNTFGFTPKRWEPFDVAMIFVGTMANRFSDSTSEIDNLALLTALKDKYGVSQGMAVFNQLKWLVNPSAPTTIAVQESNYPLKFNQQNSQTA
T1 sequence (P06875 290-846, looked up): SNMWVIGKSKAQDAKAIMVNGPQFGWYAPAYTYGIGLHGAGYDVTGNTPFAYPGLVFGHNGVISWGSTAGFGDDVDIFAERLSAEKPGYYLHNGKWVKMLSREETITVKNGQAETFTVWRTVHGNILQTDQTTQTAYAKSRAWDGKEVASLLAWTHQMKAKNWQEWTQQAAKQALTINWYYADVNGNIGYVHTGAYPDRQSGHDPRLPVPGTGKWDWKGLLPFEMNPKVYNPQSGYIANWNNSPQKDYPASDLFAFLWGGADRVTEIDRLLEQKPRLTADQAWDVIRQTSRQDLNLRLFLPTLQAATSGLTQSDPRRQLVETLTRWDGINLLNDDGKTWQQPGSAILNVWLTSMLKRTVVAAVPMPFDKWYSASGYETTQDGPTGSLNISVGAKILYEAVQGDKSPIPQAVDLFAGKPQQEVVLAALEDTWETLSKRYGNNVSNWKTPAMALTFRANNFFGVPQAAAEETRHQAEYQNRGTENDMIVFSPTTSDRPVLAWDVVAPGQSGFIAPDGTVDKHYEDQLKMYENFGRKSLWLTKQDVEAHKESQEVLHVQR
The test can be described thus: first-order inactivation, residual activity with NIPAB at […] nm. It counts as biochemical. Conditions: inactivation rate constant (given as kin x 10^4) at 0.1 M compound; 0.1 M potassium phosphate pH 7.5; 25°C; active site, turnover-linked; also a substrate.
For the molecule `NC(=O)CCl` [2-chloroacetamide], the “kin.10^4, min^-1” value is given as 1.1 ± 0.1 min^-1.

In the case of `NC(=O)CI` [2-iodoacetamide], the “kin.10^4, min^-1” value turned out to be 364 ± 34 min^-1.

On to `NC(=O)CBr` [2-bromoacetamide], for which the “kin.10^4, min^-1” value stood at 47 ± 2 min^-1.
